Literature values, collected in US9014457B2, “Quantifying cell death” (UCL Business PLC, priority 2009, dated 2015).

Tested on: neuronal cells
Conditions: cited from earlier work

## CCCCCCCCCCCCCCCCCCN1C(=CC=CC2=[N+](CCCCCCCCCCCCCCCCCC)c3ccccc3C2(C)C)C(C)(C)c2ccccc21.[O-][Cl+3]([O-])([O-])[O-] [DiI, 1,1′-dioctadecyl-3,3,3′,3′-tetramethylindocarbocyanine perchlorate]
  cell viability, development or basic cellular physiological properties: does not affect
